Among the data in PMC7026418, “The kinase polypharmacology landscape of clinical PARP inhibitors” (Scientific Reports, 2020) are percent of control binding values, retold here.

Read-outs that look alike come from different tables or passages of the source.

Holding throughout (assay): biochemical
Set-up in all cases: DiscoveRx KINOMEscan active site-directed competition binding; percent of control kinase bound to immobilised ligand

For one experiment, the target named is T1, CDK11 (Homo sapiens, UniProt Q9BWU1).
T1 construct: gene CDK19
T1 sequence (Q9BWU1 whole entry): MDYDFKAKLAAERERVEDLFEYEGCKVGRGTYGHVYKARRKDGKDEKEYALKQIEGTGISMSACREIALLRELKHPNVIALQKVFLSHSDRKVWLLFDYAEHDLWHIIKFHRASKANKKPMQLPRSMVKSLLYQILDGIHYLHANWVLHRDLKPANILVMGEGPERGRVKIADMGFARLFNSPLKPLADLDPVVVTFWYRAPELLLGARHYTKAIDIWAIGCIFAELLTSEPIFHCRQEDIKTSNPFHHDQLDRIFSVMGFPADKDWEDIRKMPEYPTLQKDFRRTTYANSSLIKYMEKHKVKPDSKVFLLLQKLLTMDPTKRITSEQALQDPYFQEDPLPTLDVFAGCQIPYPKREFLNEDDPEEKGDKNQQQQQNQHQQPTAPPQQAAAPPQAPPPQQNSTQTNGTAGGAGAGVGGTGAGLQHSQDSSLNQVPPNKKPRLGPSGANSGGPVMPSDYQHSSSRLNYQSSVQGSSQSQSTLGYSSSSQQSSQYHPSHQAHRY

The target in another experiment is FGFR2 (Homo sapiens, UniProt P21802).
Chain of FGFR2 (P21802 whole entry): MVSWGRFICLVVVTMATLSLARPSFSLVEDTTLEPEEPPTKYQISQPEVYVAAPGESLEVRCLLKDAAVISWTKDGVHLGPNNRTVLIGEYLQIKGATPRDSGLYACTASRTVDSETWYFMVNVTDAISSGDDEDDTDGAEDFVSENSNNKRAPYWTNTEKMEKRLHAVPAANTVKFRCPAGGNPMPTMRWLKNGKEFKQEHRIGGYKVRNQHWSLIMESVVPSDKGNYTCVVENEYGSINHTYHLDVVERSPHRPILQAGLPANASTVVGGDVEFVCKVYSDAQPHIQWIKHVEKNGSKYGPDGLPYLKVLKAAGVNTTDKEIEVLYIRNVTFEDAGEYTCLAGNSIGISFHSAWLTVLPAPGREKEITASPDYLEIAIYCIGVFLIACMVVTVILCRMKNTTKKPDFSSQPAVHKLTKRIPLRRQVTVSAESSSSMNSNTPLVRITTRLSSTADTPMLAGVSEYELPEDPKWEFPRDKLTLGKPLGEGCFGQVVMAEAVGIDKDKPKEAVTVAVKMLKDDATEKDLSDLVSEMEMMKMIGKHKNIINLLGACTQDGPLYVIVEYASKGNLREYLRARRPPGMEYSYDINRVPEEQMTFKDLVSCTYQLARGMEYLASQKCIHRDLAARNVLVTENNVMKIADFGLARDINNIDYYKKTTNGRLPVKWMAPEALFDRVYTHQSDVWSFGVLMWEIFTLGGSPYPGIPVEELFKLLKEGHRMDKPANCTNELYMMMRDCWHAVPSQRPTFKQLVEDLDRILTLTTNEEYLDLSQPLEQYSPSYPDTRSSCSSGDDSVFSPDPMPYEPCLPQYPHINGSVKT
The next experiment has as its target T2, LATS2 (Homo sapiens, UniProt Q9NRM7).
T2 sequence (Q9NRM7 1-1088): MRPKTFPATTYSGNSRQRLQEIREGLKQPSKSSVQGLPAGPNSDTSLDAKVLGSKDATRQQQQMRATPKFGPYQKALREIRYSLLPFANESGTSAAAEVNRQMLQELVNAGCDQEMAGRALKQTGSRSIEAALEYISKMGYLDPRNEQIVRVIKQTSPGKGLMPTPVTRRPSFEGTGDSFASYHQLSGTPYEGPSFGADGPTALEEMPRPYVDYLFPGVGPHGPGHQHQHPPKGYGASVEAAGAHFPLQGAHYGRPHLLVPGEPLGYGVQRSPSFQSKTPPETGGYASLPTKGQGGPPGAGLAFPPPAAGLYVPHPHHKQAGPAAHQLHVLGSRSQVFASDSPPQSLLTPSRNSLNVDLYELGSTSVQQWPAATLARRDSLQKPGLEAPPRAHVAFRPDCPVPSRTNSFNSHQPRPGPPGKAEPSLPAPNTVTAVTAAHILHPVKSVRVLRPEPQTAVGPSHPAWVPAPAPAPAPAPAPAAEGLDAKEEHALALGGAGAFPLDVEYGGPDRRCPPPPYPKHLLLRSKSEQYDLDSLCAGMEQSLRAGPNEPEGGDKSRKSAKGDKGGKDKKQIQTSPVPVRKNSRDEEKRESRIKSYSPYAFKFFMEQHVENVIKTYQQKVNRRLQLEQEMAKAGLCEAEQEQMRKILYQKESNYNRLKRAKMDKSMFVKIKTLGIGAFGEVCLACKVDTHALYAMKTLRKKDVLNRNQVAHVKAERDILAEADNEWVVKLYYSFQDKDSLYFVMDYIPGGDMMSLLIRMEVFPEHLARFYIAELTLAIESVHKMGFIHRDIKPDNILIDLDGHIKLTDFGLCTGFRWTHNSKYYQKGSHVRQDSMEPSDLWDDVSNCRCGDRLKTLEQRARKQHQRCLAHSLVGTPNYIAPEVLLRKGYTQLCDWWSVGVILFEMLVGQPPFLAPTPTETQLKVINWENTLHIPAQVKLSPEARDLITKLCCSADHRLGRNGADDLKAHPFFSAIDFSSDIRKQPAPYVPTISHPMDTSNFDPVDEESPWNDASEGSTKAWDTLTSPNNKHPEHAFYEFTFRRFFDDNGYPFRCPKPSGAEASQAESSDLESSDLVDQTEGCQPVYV

Another experiment has as its target T3, MLK3 (Homo sapiens, UniProt Q16584).
T3 construct: gene MAP3K11

A further experiment has as its target T4, PCTK1 (Homo sapiens, UniProt Q00536).
T4 construct: gene CDK16

Another experiment has as its target T5, RIPK4 (Homo sapiens, UniProt P57078).
T5 sequence (P57078 1-832): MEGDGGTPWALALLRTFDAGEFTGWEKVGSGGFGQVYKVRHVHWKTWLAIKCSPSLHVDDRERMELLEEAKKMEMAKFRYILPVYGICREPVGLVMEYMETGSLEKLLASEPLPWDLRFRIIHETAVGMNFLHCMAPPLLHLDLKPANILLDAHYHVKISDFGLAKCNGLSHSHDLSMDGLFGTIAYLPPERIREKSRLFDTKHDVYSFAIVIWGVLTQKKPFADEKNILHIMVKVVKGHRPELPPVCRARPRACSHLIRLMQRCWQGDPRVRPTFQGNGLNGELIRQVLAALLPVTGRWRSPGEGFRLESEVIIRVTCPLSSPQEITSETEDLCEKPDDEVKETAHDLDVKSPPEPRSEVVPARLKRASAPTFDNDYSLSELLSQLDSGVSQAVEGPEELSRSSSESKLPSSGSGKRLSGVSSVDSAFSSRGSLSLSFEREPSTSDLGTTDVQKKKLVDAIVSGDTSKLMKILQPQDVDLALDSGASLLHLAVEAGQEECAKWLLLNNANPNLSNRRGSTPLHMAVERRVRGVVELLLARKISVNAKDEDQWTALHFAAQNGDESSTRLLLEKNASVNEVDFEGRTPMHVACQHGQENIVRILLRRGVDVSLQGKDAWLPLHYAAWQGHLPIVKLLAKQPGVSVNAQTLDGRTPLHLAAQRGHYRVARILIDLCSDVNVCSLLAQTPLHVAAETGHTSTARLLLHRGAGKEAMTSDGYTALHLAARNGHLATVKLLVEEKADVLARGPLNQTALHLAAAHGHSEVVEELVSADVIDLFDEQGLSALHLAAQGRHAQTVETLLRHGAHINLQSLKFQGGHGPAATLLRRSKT

Where [1] appears, read: read-out: Rucaparib / %Ctrl @ 10000nM, binding competition, % of control.
Where [2] appears, read: read-out: Talazoparib (BMN 673) / %Ctrl @ 10000nM.
[3] abbreviates: read-out: Niraparib (MK-4827) / %Ctrl @ 10000nM.
The mark [4] stands for this setting: read-out: Olaparib / %Ctrl @ 10000nM.

T4 sequence (Q00536 whole entry): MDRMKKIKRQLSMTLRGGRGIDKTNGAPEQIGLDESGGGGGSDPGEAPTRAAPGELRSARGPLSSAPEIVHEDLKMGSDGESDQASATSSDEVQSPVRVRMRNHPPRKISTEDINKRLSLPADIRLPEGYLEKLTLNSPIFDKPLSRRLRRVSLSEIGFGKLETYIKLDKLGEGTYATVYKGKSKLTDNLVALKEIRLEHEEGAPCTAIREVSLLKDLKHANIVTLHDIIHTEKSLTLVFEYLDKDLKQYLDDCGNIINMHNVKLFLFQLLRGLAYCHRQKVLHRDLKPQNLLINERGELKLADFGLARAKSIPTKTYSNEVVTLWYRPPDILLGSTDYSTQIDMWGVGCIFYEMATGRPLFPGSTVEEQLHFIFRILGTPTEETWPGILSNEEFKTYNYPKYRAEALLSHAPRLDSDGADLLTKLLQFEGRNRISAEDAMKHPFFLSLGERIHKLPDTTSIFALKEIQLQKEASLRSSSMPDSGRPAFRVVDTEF
T3 sequence (Q16584 whole entry): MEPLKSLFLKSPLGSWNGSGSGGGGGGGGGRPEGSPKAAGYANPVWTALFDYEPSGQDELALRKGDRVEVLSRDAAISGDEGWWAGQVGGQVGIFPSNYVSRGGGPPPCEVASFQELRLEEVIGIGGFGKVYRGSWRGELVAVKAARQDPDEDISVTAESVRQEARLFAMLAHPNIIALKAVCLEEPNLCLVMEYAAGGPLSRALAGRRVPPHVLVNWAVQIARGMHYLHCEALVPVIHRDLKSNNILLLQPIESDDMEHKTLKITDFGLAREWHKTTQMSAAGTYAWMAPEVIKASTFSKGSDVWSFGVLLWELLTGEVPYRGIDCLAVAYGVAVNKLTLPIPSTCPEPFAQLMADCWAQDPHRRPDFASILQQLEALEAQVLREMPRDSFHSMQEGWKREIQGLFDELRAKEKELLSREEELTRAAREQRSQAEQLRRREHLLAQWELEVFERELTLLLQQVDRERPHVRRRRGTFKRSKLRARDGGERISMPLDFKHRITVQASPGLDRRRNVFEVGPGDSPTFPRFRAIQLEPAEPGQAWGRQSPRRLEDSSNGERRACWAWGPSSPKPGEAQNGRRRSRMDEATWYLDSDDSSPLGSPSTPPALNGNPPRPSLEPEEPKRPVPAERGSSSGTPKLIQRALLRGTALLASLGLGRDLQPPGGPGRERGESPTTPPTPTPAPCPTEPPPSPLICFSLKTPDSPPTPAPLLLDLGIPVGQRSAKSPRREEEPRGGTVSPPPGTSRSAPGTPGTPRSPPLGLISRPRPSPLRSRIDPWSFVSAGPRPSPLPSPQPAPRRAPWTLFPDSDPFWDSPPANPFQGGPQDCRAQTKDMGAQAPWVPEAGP

On to `CNCc1ccc(-c2[nH]c3cc(F)cc4c3c2CCNC4=O)cc1` [Rucaparib], for which the percent of control binding at 10 µM came out at 94% on CDK11 (setting [1]); 99% at FGFR2 (setting [1]); 48% on LATS2 (setting [1]); 92% at MLK3 (setting [1]); 13% at PCTK1 (setting [1]); 75% on RIPK4 (setting [1]).

For the compound `Cn1ncnc1[C@H]1c2n[nH]c(=O)c3cc(F)cc(c23)N[C@@H]1c1ccc(F)cc1` [Talazoparib], the percent of control binding at 10 µM at CDK11 (setting [2]) was determined as 93%; at FGFR2 (setting [2]), 100%; at LATS2 (setting [2]), 82%; at MLK3 (setting [2]), 70%; at PCTK1 (setting [2]) it was 86%; on RIPK4 (setting [2]), 69%.

As for `NC(=O)c1cccc2cn(-c3ccc([C@@H]4CCCNC4)cc3)nc12` [Niraparib], the percent of control binding at 10 µM on CDK11 (setting [3]) amounted to 93%; at FGFR2 (setting [3]) it was 100%; on LATS2 (setting [3]) it was 4.2%; at MLK3 (setting [3]) it was 84%; at PCTK1 (setting [3]), 47%; at RIPK4 (setting [3]) it was 81%.

As for `O=C(c1cc(Cc2n[nH]c(=O)c3ccccc23)ccc1F)N1CCN(C(=O)C2CC2)CC1` [Olaparib], the percent of control binding at 10 µM on CDK11 (setting [4]) was determined as 85%; on FGFR2 (setting [4]), 100%; at LATS2 (setting [4]), 77%; on MLK3 (setting [4]), 100%; at PCTK1 (setting [4]), 99%; on RIPK4 (setting [4]), 81%.
